According to US7732637B2, “Acylamide compounds having secretagogue or inducer activity of adiponectin” (Ajinomoto Co., Inc., priority 2005, dated 2010):

Test system: uncoupling protein 2 (UCP2) gene
Assay: UCP2 mRNA expression level in liver of ob/ob mice
Format: in vivo
Settings: 500 mg/kg orally once a day; autopsy 38th day; divided by GAPDH mRNA; vs control groups; FIG. 4
Method: (§1) Male ob/ob mice of 5 weeks old (purchased from Charles River Laboratories Japan, Inc.) were preliminarily fed for one week by an experimental diet containing 25% by weight ratio of fats. Then, they were divided into groups so that their body weights and blood glucose were the same between the groups. After the division, N-lauroyl-L-valine (500 mg/kg) was orally administered once a day, and a control group was set, to which vehicle was administered. […] The non-fasting blood glucose was measured on the 6th, 14th and 26th day after starting the administration. The blood glucose was measured by collecting 6 μL of the blood from the caudal vein and using a Fuji DriChem system (produced by FUJIFILM Medical Co., Ltd.). […] Further, on the 27th day after starting the administration, the blood was collected by retroorbital bleeding, and the insulin and triglyceride concentrations in plasma were measured. […] SYBER GREEN Master Mix (ABI) and a primer for amplifying uncoupling protein 2 (UCP2) gene, acyl-CoA oxidase (ACO) gene or glyceraldehyde-3-phosphate dehydrogenase (GAPDH) gene were added to cDNA corresponding to 7.5 ng of total RNA, and the gene expression level was measured with ABI 7700 detector. […]

Compound	UCP2 mRNA expression level in the liver
CCCCCCCCCCCC(=O)N[C@H](C(=O)O)C(C)C [Example 20, N-lauroyl-L-valine]	significantly increased

Test system: 3T3-L1 cells
Assay: Adiponectin output in culture supernatant of differentiated 3T3-L1 cells (LANCE immunoassay)
Format: cell-based, mouse
Settings: adiponectin concentration in culture supernatant, test compound 7 μg/mL, 72 hours; control without compound 24 ng/mL
Method: 3T3-L1 cells were suspended in Dulbecco's Modified Eagle Medium (GIBCO, 12430-054) containing 10% fetal bovine serum to become 1.5×10^5 cells/mL and seeded. After the incubation in the CO2 incubator at 37° C. for 72 hours, the medium was removed by suction. Then, the medium was exchanged for Dulbecco's Modified Eagle Medium containing 10 μg/mL of insulin, 1 μM of dexamethasone, 0.5 mM of IBMX (3-isobutyl-1-methylxanthine) and 10% fetal bovine serum, and further incubated in the CO2 incubator at 37° C. for 48 hours. The test compound was added to the medium, and then the incubation was continued for 72 hours.
Eu (Europium) chelate labeling of anti-mouse adiponectin antibody (AF1119, by R&D Systems) was conducted by using 100 μg of LANCE Eu-W1024-ITC chelate (AD0013 by Perkin Elmer), which is a Eu chelate labeling reagent, to 200 μg of the antibody in accordance with the method described in the manual of the manufacturer. Biotin labeling of anti-mouse adiponectin antibody (AF1119, by R&D Systems) was conducted by using 26.8 μg of NHS-Biotin (1418165, Biotin Labeling Kit, by Boehringer Mannheim), which is a biotin labeling reagent, to 100 μg of the antibody in accordance with the method described in the manual.
The amount of adiponectin in the cell culture supernatant was measured as follows. The culture supernatant was diluted fivefold with TBS (Tris-buffered saline; 20 mM Tris-HCl pH 7.4, 0.15M NaCl) containing 0.1% bovine serum albumin (BSA), and 10 μL thereof was mixed with 300 ng/mL of the Eu chelate labeled antibody, 300 ng/mL of the biotin labeled antibody, 2.5 μg/mL of Streptavidin-APC (AD0201, by Perkin Elmer) and 10 μL of a TBS solution containing 0.1% BSA on the 384-well plate. After preserving the mixture at room temperature for 2 days, LANCE count was measured by using ARVO-SX multilabel counter (by Perkin Elmer) in accordance with the protocol of the LANCE method. At the same time, the mouse adiponectin preparation (8060-K, by LINCO) was also measured, and the concentration of adiponectin in the culture supernatant was calculated from the calibration curve of the preparation.
Adiponectin outputs were measured by the same method as that of Examples 1 to 31.

Compound	Adiponectin output
CCCCCCCCCCCC(=O)NC(C)(C(=O)O)C(C)C (racemic) [Example 18]	87 ng/mL
CCCCCCCCCCCC(=O)N(CC)[C@H](C(=O)O)C(C)C [Example 24]	66 ng/mL
CCCCCCCCCCC(=O)N[C@@H](Cc1ccccc1)C(=O)O [Example 12]	58 ng/mL
C=CCCCCCCCCC(=O)N[C@@H](Cc1ccccc1)C(=O)O [Example 8]	54 ng/mL
CCCCCCCCCCCC(=O)N[C@H](C(=O)NC1CCCCC1)C(C)C (racemic) [Example 23, N-lauroyl-L-valine cyclohexylamide]	65 ng/mL
CCCCCCCCCCCC(=O)NC(C)(CC)C(=O)O (racemic) [Example 16]	78 ng/mL
CCCCCCCCCCCC(=O)N[C@@H](CCSC)C(=O)O [Example 19]	71 ng/mL
CCCCCCCCCCCCNC(=O)C(NC(=O)CCCCCCCCCCC)C(C)C (racemic) [Example 22]	64 ng/mL
CCCCCCCCCCCC(=O)NC(C(N)=O)C(C)C (racemic) [Example 21]	70 ng/mL
CCCCCCCCCCCC(=O)NC(C)(C)C(=O)O [Example 17]	81 ng/mL

Same assay, conditions: adiponectin concentration in culture supernatant, test compound 12.5 μM, 72 hours; control without compound 24 ng/mL

Compound	Adiponectin output
CCCCCCCCCCCCCCCCCC(=O)N[C@H](C(=O)O)C(C)C [Example 30]	43 ng/mL
CCCCCCCCCCC(=O)N[C@@H](CC(C)C)C(=O)O [Example 11]	45 ng/mL
CCCCCCCCCC(=O)N[C@H](C(=O)O)[C@@H](C)CC [Example 5]	74 ng/mL
CCCCCCCCCCCCCCCC(=O)N[C@@H](CC(C)C)C(=O)O [Example 27]	57 ng/mL
CCCCCCCCCCCCCCCCCCCCCC(=O)N[C@H](C(=O)O)C(C)C [Example 31]	42 ng/mL
CCCCCCCCCCCCCC(=O)N[C@H](C(=O)O)[C@@H](C)CC [Example 25]	93 ng/mL
CCCCCCCCC(=O)N[C@H](C(=O)O)[C@@H](C)CC [Example 2]	58 ng/mL
C=CCCCCCCCCC(=O)N[C@@H](CC(C)C)C(=O)O [Example 7]	61 ng/mL
CCCCCCCCCC(=O)N[C@@H](CC(C)C)C(=O)O [Example 6]	54 ng/mL
CCCCCCCCCCCCCC(=O)N[C@@H](CC(C)C)C(=O)O [Example 26]	56 ng/mL
CCCCCCCCCCCC(=O)N[C@H](C(=O)O)C(C)C [Example 20, N-lauroyl-L-valine]	92 ng/mL
CCCCCCCCCC(=O)N[C@H](C(=O)O)C(C)C [Example 9]	81 ng/mL
CCCCCCCCC(=O)N[C@@H](CC(C)C)C(=O)O [Example 3]	42 ng/mL
C=CCCCCCCCCC(=O)N[C@H](C(=O)O)C(C)C [Example 10]	59 ng/mL
CCCCCCCCC(=O)N[C@H](C(=O)O)C(C)C [Example 4]	64 ng/mL
CCCCCCCCCCCC(=O)N[C@@H](CC(C)C)C(=O)O [Example 15]	67 ng/mL
CCCCCCCCCCCCCCCCCC(=O)N[C@@H](CC(C)C)C(=O)O [Example 29]	43 ng/mL
CCCCCCCCCCCCCCCC(=O)N[C@H](C(=O)O)C(C)C [Example 28]	31 ng/mL
CCCCCCCCCCCC(=O)N[C@H](C(=O)O)[C@@H](C)CC [Example 14]	84 ng/mL

Same assay, conditions: adiponectin output as ratio to that of Example 20 in Table 1; same method as Examples 1 to 31

Compound	Adiponectin Ratio to Exam. 20 of Table 1
CCCCCCCCCCCC(=O)N[C@H](C(=O)O)c1ccccc1 [Example 36]	33%
CCCCCCCCCCCC(=O)N[C@@H](Cc1csc2ccccc12)C(=O)O [Example 43]	20%
CCCCCCCCCC(=O)N[C@H](C(=O)O)C(C)(C)C [Example 32]	56%
CCCCCCCCCCCC(=O)N[C@@H](Cc1ccc(OC)cc1)C(=O)O [Example 37]	46%
CCCCCCCCCCCC(=O)NC(C(=O)O)C(C(F)(F)F)C(F)(F)F (racemic) [Example 34]	25%
CCCCCCCCCCCC(=O)N[C@H](C(=O)O)C1CCCCC1 [Example 39]	41%
CCCCCCCCCCCC(=O)NC(C(=O)O)C(C)CC (centres unmarked) [Example 35]	83%
CCCCCCCCCCCC(=O)N[C@H](C(=O)O)C(c1ccccc1)c1ccccc1 [Example 40]	14%
CCCCCCCCCCCC(=O)NC(Cc1ccccc1C)C(=O)O (racemic) [Example 38]	31%
CCCCCCCCCCCC(=O)NC(C)(Cc1ccccc1)C(=O)O (racemic) [Example 41]	22%
CCCCCCCCCCCC(=O)N[C@H](C(=O)O)C(C)(C)C [Example 33]	103%
CCCCCCCCCCCC(=O)N[C@@H](Cc1ccc(Cl)cc1)C(=O)O [Example 42]	44%

Test system: acyl-CoA oxidase (ACO) gene
Assay: ACO mRNA expression level in liver of ob/ob mice
Format: in vivo
Settings: 500 mg/kg orally once a day; autopsy 38th day; divided by GAPDH mRNA; vs control groups; FIG. 5
Method: as §1

Compound	ACO mRNA expression level in the liver
CCCCCCCCCCCC(=O)N[C@H](C(=O)O)C(C)C [Example 20, N-lauroyl-L-valine]	significantly increased

Test system: ob/ob mice
Assay: Oral administration to ob/ob mice on 25% fat diet: blood glucose, glycated hemoglobin, plasma insulin and triglyceride
Format: in vivo
Settings: 500 mg/kg orally once a day; 6th, 14th and 26th day vs before starting the administration; FIG. 1
Method: Male ob/ob mice of 5 weeks old (purchased from Charles River Laboratories Japan, Inc.) were preliminarily fed for one week by an experimental diet containing 25% by weight ratio of fats. Then, they were divided into groups so that their body weights and blood glucose were the same between the groups. After the division, N-lauroyl-L-valine (500 mg/kg) was orally administered once a day, and a control group was set, to which vehicle was administered. Taking into consideration the possibility that the effect of N-lauroyl-L-valine depends on the diet intake, pair-feeding group was also set as a control group in addition to the vehicle administered group, to which vehicle was daily administered in an average diet intake per a day of the N-lauroyl-L-valine administered group and, therefore, the diet intake thereof is quite the same as that of the N-lauroyl-L-valine administered group during the test period. The non-fasting blood glucose was measured on the 6th, 14th and 26th day after starting the administration. The blood glucose was measured by collecting 6 μL of the blood from the caudal vein and using a Fuji DriChem system (produced by FUJIFILM Medical Co., Ltd.). On the 26th day after starting the administration, the blood was collected by retroorbital bleeding, and 5 μL of its blood was used to conduct the measurement of glycated hemoglobin with the analyzer (HLC-723 GHbV, by Tosoh Technosystem). Further, on the 27th day after starting the administration, the blood was collected by retroorbital bleeding, and the insulin and triglyceride concentrations in plasma were measured. The measurement of the insulin concentration in plasma was conducted by using an insulin measurement kit (by Morinaga Institute of Biological Science, Inc.). The measurement of the triglyceride concentration in plasma was conducted by using a Fuji DriChem system. On the 38th day after staring the administration, autopsy was conducted to collect the liver of the mouse. Then, total RNA was extracted from the frozen liver by using ISOGEN (by Nippon Gene Co., Ltd.), and 0.5 μg of total RNA, oligo (dT) (by Invitrogen) and SuperScript III reverse transcriptase (by Invitrogen) were used to prepare cDNA. SYBER GREEN Master Mix (ABI) and a primer for amplifying uncoupling protein 2 (UCP2) gene, acyl-CoA oxidase (ACO) gene or glyceraldehyde-3-phosphate dehydrogenase (GAPDH) gene were added to cDNA corresponding to 7.5 ng of total RNA, and the gene expression level was measured with ABI 7700 detector. The expression levels of UCP2 and ACO genes were amended by being divided by the expression level of GAPDH mRNA. Two kinds of primers for amplifying UCP2 gene were used wherein the base sequences were ggcctctggaaagggactt and […] from 5′. […]

Compound	non-fasting blood glucose
CCCCCCCCCCCC(=O)N[C@H](C(=O)O)C(C)C [Example 20, N-lauroyl-L-valine]	decreased

Same assay, conditions: 500 mg/kg orally once a day; 26th day; vs vehicle group and pair-feeding group; FIG. 2

Compound	glycated hemoglobin level
CCCCCCCCCCCC(=O)N[C@H](C(=O)O)C(C)C [Example 20, N-lauroyl-L-valine]	significantly lower

Same assay, conditions: 500 mg/kg orally once a day; 27th day vs before; increased in control groups; FIG. 3

Compound	fasting insulin concentration in plasma
CCCCCCCCCCCC(=O)N[C@H](C(=O)O)C(C)C [Example 20, N-lauroyl-L-valine]	such increase was not seen

Same assay, conditions: 500 mg/kg orally once a day; 27th day; vs control groups; FIG. 6

Compound	triglyceride concentration in plasma
CCCCCCCCCCCC(=O)N[C@H](C(=O)O)C(C)C [Example 20, N-lauroyl-L-valine]	tended to be lower
